Test results published in PubChem BioAssay AID248 (DTP/NCI, 2004).
“And” between values parts separate entries of the source, which are not always exact repeats. Equal values may be shown once. Toxic doses and inconclusive results are not listed.

Test system: L1210 leukemia ip in BDF1 mice, survival T/C
Assay: NCI In Vivo Anticancer Drug Screen. Data for tumor model L1210 Leukemia (intraperitoneal) in B6D2F1 (BDF1) mice
Details: endpoint: mean survival time, higher = longer survival
Procedure, shortened: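 Tumor was transplanted into mice, which were then dosed with test compound or vehicle alone. Survival was recorded for each group, and the treated figure was expressed relative to the control figure.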

[1] = dose: 100.0 mg/kg/injection, schedule: Q01DX001 (ip), vehicle: saline
[2] = dose: 200.0 mg/kg/injection, schedule: Q01DX001 (ip), vehicle: saline
[3] = dose: 400.0 mg/kg/injection, schedule: Q01DX001 (ip), vehicle: saline
[4] = dose: 100.0 mg/kg/injection, schedule: Q04DX003 (ip), vehicle: saline with Tween-80
[5] = dose: 200.0 mg/kg/injection, schedule: Q04DX003 (ip), vehicle: saline with Tween-80
[6] = dose: 400.0 mg/kg/injection, schedule: Q04DX003 (ip), vehicle: saline with Tween-80
[7] = dose: 100.0 mg/kg/injection, schedule: Q01DX001 (ip), vehicle: saline with Tween-80
[8] = dose: 100.0 mg/kg/injection, schedule: Q01DX009 (ip), vehicle: saline with Tween-80
[9] = dose: 200.0 mg/kg/injection, schedule: Q01DX001 (ip), vehicle: saline with Tween-80
[10] = dose: 200.0 mg/kg/injection, schedule: Q01DX009 (ip), vehicle: saline with Tween-80
[11] = dose: 400.0 mg/kg/injection, schedule: Q01DX001 (ip), vehicle: saline with Tween-80
[12] = dose: 50.0 mg/kg/injection, schedule: Q01DX001 (ip), vehicle: carboxymethylcellulose (CMC)
[13] = dose: 100.0 mg/kg/injection, schedule: Q01DX001 (ip), vehicle: carboxymethylcellulose (CMC)
[14] = dose: 200.0 mg/kg/injection, schedule: Q01DX001 (ip), vehicle: carboxymethylcellulose (CMC)
[15] = dose: 400.0 mg/kg/injection, schedule: Q01DX001 (ip), vehicle: carboxymethylcellulose (CMC)
[16] = dose: 100.0 mg/kg/injection, schedule: Q01DX009 (ip), vehicle: saline
[17] = dose: 100.0 mg/kg/injection, schedule: Q04DX003 (ip), vehicle: saline
[18] = dose: 200.0 mg/kg/injection, schedule: Q01DX009 (ip), vehicle: saline
[19] = dose: 200.0 mg/kg/injection, schedule: Q04DX003 (ip), vehicle: saline
[20] = dose: 400.0 mg/kg/injection, schedule: Q01DX009 (ip), vehicle: saline
[21] = dose: 400.0 mg/kg/injection, schedule: Q04DX003 (ip), vehicle: saline

CCCCN(C)/N=N/c1[nH]ncc1C(=O)OC
T/C (dose: 268.0 mg/kg/injection, schedule: Q01DX007 (ip), vehicle: other): 150 % of control | T/C (dose: 600.0 mg/kg/injection, schedule: Q01DX007 (ip), vehicle: other): 88 % of control

CCC(CO)NC(=O)C1C=C2c3cccc4c3c(cn4C)CC2N(C)C1 (centres undefined)
T/C (dose: 25.0 mg/kg/injection, schedule: Q01DX009 (ip), vehicle: Klucel (hydroxypropylcellulose) (HPC)): 94 % of control and 101 % of control | T/C (dose: 25.0 mg/kg/injection, schedule: Q04DX003 (ip), vehicle: Klucel (hydroxypropylcellulose) (HPC)): 97 % of control | T/C (dose: 50.0 mg/kg/injection, schedule: Q01DX009 (ip), vehicle: Klucel (hydroxypropylcellulose) (HPC)): 94 % of control and 101 % of control | T/C (dose: 50.0 mg/kg/injection, schedule: Q04DX003 (ip), vehicle: Klucel (hydroxypropylcellulose) (HPC)): 103 % of control | T/C (dose: 100.0 mg/kg/injection, schedule: Q01DX009 (ip), vehicle: Klucel (hydroxypropylcellulose) (HPC)): 111 % of control and 91 % of control | T/C (dose: 100.0 mg/kg/injection, schedule: Q04DX003 (ip), vehicle: Klucel (hydroxypropylcellulose) (HPC)): 108 % of control | T/C (dose: 200.0 mg/kg/injection, schedule: Q01DX009 (ip), vehicle: Klucel (hydroxypropylcellulose) (HPC)): 120 % of control and 121 % of control | T/C (dose: 200.0 mg/kg/injection, schedule: Q04DX003 (ip), vehicle: Klucel (hydroxypropylcellulose) (HPC)): 109 % of control | T/C (dose: 400.0 mg/kg/injection, schedule: Q01DX009 (ip), vehicle: Klucel (hydroxypropylcellulose) (HPC)): 120 % of control | T/C (dose: 400.0 mg/kg/injection, schedule: Q04DX003 (ip), vehicle: Klucel (hydroxypropylcellulose) (HPC)): 104 % of control

CCN(CC)CCOC(=O)c1ccc(OCCOc2ccc(C(C)(C)CC(C)(C)C)cc2)c([N+](=O)[O-])c1
T/C (dose: 100.0 mg/kg/injection, schedule: Q04DX003 (ip), vehicle: saline sonified): 96 % of control | T/C (dose: 200.0 mg/kg/injection, schedule: Q04DX003 (ip), vehicle: saline sonified): 87 % of control | T/C (dose: 400.0 mg/kg/injection, schedule: Q04DX003 (ip), vehicle: saline sonified): 98 % of control

Cc1cc(=O)oc2c(CN3CCCCC3)c(O)ccc12
T/C (dose: 5.0 mg/kg/injection, schedule: Q01DX001 (ip), vehicle: carboxymethylcellulose (CMC)): 93 % of control | T/C (dose: 10.0 mg/kg/injection, schedule: Q01DX001 (ip), vehicle: carboxymethylcellulose (CMC)): 90 % of control | T/C (dose: 20.0 mg/kg/injection, schedule: Q01DX001 (ip), vehicle: carboxymethylcellulose (CMC)): 104 % of control

OC1C2CCN(CC2)C1C(c1ccccc1)c1ccc(F)cc1 (centres undefined)
T/C (dose: 100.0 mg/kg/injection, schedule: Q04DX002 (ip), vehicle: Klucel (hydroxypropylcellulose) (HPC)): 91 % of control | T/C (dose: 200.0 mg/kg/injection, schedule: Q04DX002 (ip), vehicle: Klucel (hydroxypropylcellulose) (HPC)): 87 % of control

CCCN1C(=O)CC(=O)NC1=O
T/C [1]: 102 % of control | T/C [2]: 100 % of control | T/C [3]: 100 % of control

CC(=O)Nc1c(Cl)c(Cl)c2c(c1Cl)Cc1cc(F)ccc1-2
T/C (dose: 62.5 mg/kg/injection, schedule: Q01DX Z (ip), vehicle: saline): 97 % of control | T/C [4]: 101 % of control | T/C (dose: 125.0 mg/kg/injection, schedule: Q01DX Z (ip), vehicle: saline): 95 % of control | T/C [5]: 93 % of control | T/C (dose: 250.0 mg/kg/injection, schedule: Q01DX Z (ip), vehicle: saline): 101 % of control | T/C [6]: 95 % of control | T/C (dose: 500.0 mg/kg/injection, schedule: Q01DX Z (ip), vehicle: saline): 95 % of control | T/C (dose: 650.0 mg/kg/injection, schedule: Q01DX Z (ip), vehicle: saline): 96 % of control | T/C (dose: 800.0 mg/kg/injection, schedule: Q01DX Z (ip), vehicle: saline): 102 % of control

CC(C(O)c1ccccc1)N(C)/N=N/c1nc[nH]c1C(N)=O (centres undefined)
T/C [7]: 92 % of control | T/C [8]: 98 % of control | T/C [4]: 98 % of control | T/C [9]: 90 % of control | T/C [10]: 103 % of control | T/C [5]: 102 % of control | T/C [11]: 92 % of control | T/C (dose: 400.0 mg/kg/injection, schedule: Q01DX009 (ip), vehicle: saline with Tween-80): 107 % of control | T/C [6]: 102 % of control

CCC1(c2ccccc2)NC(=O)NC1=O (centres undefined)
T/C [8]: 102 % of control | T/C [10]: 100 % of control

Nc1ncnc2c1ncn2C1OC(C(O)CO)C(O)C1N (centres undefined)
T/C [12]: 111 % of control | T/C [13]: 105 % of control | T/C [14]: 108 % of control | T/C [15]: 108 % of control

CC(=N/NC(N)=S)/C(C)=N/NC(N)=S
T/C (dose: 15.0 mg/kg/injection, schedule: Q01DX Z (ip), vehicle: carboxymethylcellulose (CMC)): 97 % of control | T/C (dose: 30.0 mg/kg/injection, schedule: Q01DX Z (ip), vehicle: carboxymethylcellulose (CMC)): 97 % of control | T/C [12]: 95 % of control | T/C (dose: 60.0 mg/kg/injection, schedule: Q01DX Z (ip), vehicle: carboxymethylcellulose (CMC)): 101 % of control and 91 % of control | T/C [13]: 87 % of control | T/C [1]: 110 % of control | T/C [16]: 91 % of control | T/C [17]: 98 % of control | T/C (dose: 120.0 mg/kg/injection, schedule: Q01DX Z (ip), vehicle: carboxymethylcellulose (CMC)): 95 % of control | T/C [14]: 87 % of control | T/C [2]: 106 % of control | T/C [18]: 88 % of control | T/C [19]: 86 % of control | T/C (dose: 240.0 mg/kg/injection, schedule: Q01DX Z (ip), vehicle: carboxymethylcellulose (CMC)): 93 % of control | T/C (dose: 240.0 mg/kg/injection, schedule: Q01DX Z (oral), vehicle: carboxymethylcellulose (CMC)): 105 % of control | T/C [15]: 89 % of control | T/C [3]: 101 % of control | T/C [20]: 93 % of control | T/C [21]: 91 % of control | T/C (dose: 480.0 mg/kg/injection, schedule: Q01DX Z (ip), vehicle: carboxymethylcellulose (CMC)): 87 % of control | T/C (dose: 480.0 mg/kg/injection, schedule: Q01DX Z (oral), vehicle: carboxymethylcellulose (CMC)): 102 % of control | T/C (dose: 960.0 mg/kg/injection, schedule: Q01DX Z (oral), vehicle: carboxymethylcellulose (CMC)): 102 % of control | T/C (dose: 1920.0 mg/kg/injection, schedule: Q01DX Z (oral), vehicle: carboxymethylcellulose (CMC)): 111 % of control

C#CCOCC(O)C[As](=O)(O)c1ccc(Cl)cc1 (centres undefined)
T/C (dose: 6.25 mg/kg/injection, schedule: Q01DX001 (ip), vehicle: saline with Tween-80): 101 % of control | T/C (dose: 12.5 mg/kg/injection, schedule: Q01DX001 (ip), vehicle: saline with Tween-80): 106 % of control

O=C(CSc1ccc([N+](=O)[O-])cn1)c1ccc(Br)cc1
T/C [17]: 102 % of control | T/C [19]: 98 % of control | T/C [21]: 102 % of control

c1ccc(Pc2ccccc2)cc1
T/C [7]: 103 % of control | T/C [8]: 93 % of control | T/C [9]: 105 % of control | T/C [10]: 98 % of control | T/C [11]: 104 % of control

CC(=O)c1ccc(C)c2ccccc12
T/C [1]: 101 % of control | T/C [2]: 102 % of control | T/C [3]: 95 % of control

CN1CC2C(N)N=C(N)NC2C1(C)C (centres undefined)
T/C (dose: 100.0 mg/kg/injection, schedule: Q04DX002 (ip), vehicle: saline): 101 % of control | T/C (dose: 200.0 mg/kg/injection, schedule: Q04DX002 (ip), vehicle: saline): 93 % of control | T/C (dose: 400.0 mg/kg/injection, schedule: Q04DX002 (ip), vehicle: saline): 90 % of control

CCCC1C(=O)N2C(N(C)C)=Nc3ccc(C)cc3N2C1=O (centres undefined)
T/C (dose: 50.0 mg/kg/injection, schedule: Q01DX009 (ip), vehicle: carboxymethylcellulose (CMC)): 101 % of control | T/C [1]: 110 % of control | T/C (dose: 100.0 mg/kg/injection, schedule: Q01DX009 (ip), vehicle: carboxymethylcellulose (CMC)): 101 % of control | T/C [2]: 98 % of control | T/C (dose: 200.0 mg/kg/injection, schedule: Q01DX009 (ip), vehicle: carboxymethylcellulose (CMC)): 101 % of control | T/C [3]: 93 % of control | T/C (dose: 400.0 mg/kg/injection, schedule: Q01DX009 (ip), vehicle: carboxymethylcellulose (CMC)): 92 % of control

O=[N+]([O-])c1cccc2c(Br)cccc12
T/C [16]: 106 % of control | T/C [17]: 103 % of control | T/C [18]: 95 % of control | T/C [19]: 100 % of control | T/C [20]: 95 % of control | T/C [21]: 106 % of control
